What all share (assay): NCI-60 cell line screen, 48 h
The test system of test [1] is A498.
Test [2] relates to CAKI-1.
Test [3] concerns DLD-1.
Test [4] relates to HCC 2998.
The subject of test [5] is HT-29.
The subject of test [6] is LXFL 529.
For test [7], the system named is NCI-H460.
In test [8] the test system is RPMI-8226.
The subject of test [9] is SNB-78.
Test [10] deals with BT-549.
Test [11] concerns HCT-116.
Test [12] has as its system HOP-92.
Test [13] deals with MCF7.
Test [14] concerns MDA-N.
In test [15] the test system is NCI-H226.
Test [16] concerns SF-539.
Test [17] has as its system SK-MEL-2.
Test [18] concerns DMS-273.
Test [19] has as its system LOX IMVI.
Test [20] has as its system RXF 631.

The values that follow come from ChEMBL document CHEMBL1201862, “PubChem BioAssay data set” (2004).

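Exposure lasted 48 hours, with cells grown in 96-well plates and compounds tested at five concentrations. GI50 is the concentration that inhibits growth by half.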 Calls of active or inactive are those of the source. Cut-off read from the data, not from the text of the source: active = GI50 up to about 1.1 µM and inactive = higher.

As to `COc1ccc(/C=C/C(=O)C(C)(C)C)cc1OC`, the GI50 is > 100 µM (inactive) in [1]; 78 µM (inactive) in test [2]; 65.9 µM (inactive) in [3]; > 100 µM (inactive) in test [4]; 62.5 µM (inactive) in [5]; 43.6 µM (inactive) in test [6]. Moreover, the values for the GI50 in [7], in test [8] and in test [9] were > 100 µM (inactive), 47.4 µM (inactive) and 38 µM (inactive), respectively.

With `Cc1cn(C2CC(n3cc(Cn4ccc(=O)[nH]c4=O)nn3)C(CO)O2)c(=O)[nH]c1=O` (stereo not given), the GI50 in test [1], in [10], in test [2], in test [4], in test [11] and in [12] was > 100 µM (inactive) in each case. For the same compound, the GI50 in test [13], in [14], in test [15], in test [8], in [16] and in test [17] was > 100 µM (inactive) in each case.

Consider `Cc1ccc(/N=N/C(C2=NC(=O)CS2)c2nc3ccccc3[nH]2)cc1` (stereo not given), for which the GI50 in [1], in test [2], in test [3], in test [18], in test [11] and in test [12] was > 100 µM (inactive) in each case. Further, the GI50 was > 100 µM (inactive) in test [5]; > 100 µM (inactive) in test [6]; 6.1 µM (inactive) in [15]; > 100 µM (inactive) in [7]; > 100 µM (inactive) in test [8]; 54.6 µM (inactive) in [16].

Regarding `CN1CCC(C(=O)NNc2ccccc2)CC1`, the GI50 in test [1] is > 100 µM (inactive); in test [2] it was > 20.6 µM (inactive); in test [3], 12.8 µM (inactive); in test [18] it was 3.1 µM (inactive); in test [4], 5.22 µM (inactive); in [11], > 43.4 µM (inactive). The GI50 was > 100 µM (inactive) in test [12]; 7.53 µM (inactive) in test [5]; 0.923 µM (active) in test [19]; 0.9 µM (active) in test [6]; > 100 µM (inactive) in test [15]; 5.62 µM (inactive) in test [7]. In addition, the GI50 is 24.8 µM (inactive) in test [8], 7.87 µM (inactive) in test [16], 9.02 µM (inactive) in test [17] and > 100 µM (inactive) in test [9].

For the compound `C#CCCCCC#Cc1ccccc1C(=O)OC`, the GI50 was > 100 µM (inactive) in [1]; 47.2 µM (inactive) in test [3]; 38.3 µM (inactive) in test [18]; > 100 µM (inactive) in test [4]; 11 µM (inactive) in test [11]; 24.9 µM (inactive) in test [12]. In addition, the GI50 is 30.5 µM (inactive) in test [5]; 14.8 µM (inactive) in test [19]; 43.5 µM (inactive) in test [15]; > 100 µM (inactive) in [7]; 13.1 µM (inactive) in test [8]; > 100 µM (inactive) in test [16]. Besides, the GI50 in test [17] is 39.7 µM (inactive).

For `Cc1c2ccccc2c(CO)c2cc(F)c3ccccc3c12`, the GI50 was 38.2 µM (inactive) in test [1]; 25.4 µM (inactive) in test [2]; 14.8 µM (inactive) in test [3]; 14.8 µM (inactive) in test [18]; 50.6 µM (inactive) in test [4]; 19.3 µM (inactive) in test [11]. Besides, the GI50 in test [12] was 32.4 µM (inactive); in [5], 19.1 µM (inactive); in test [19], 17.1 µM (inactive); in test [15], 42 µM (inactive); in [20], 16.7 µM (inactive); in test [16], 30.6 µM (inactive). Further, the results for the GI50 in test [17] and in test [9] were 18.5 µM (inactive) and 24 µM (inactive), respectively.

Take `CC1CC(c2ccc([N+](=O)[O-])cc2)=Nc2ccccc2[S+]1[O-]` (stereo not given): the GI50 in [1] is 18.2 µM (inactive); in test [2], 20.9 µM (inactive); in test [3] it was 14.3 µM (inactive); in test [18], 19 µM (inactive); in test [4] it was 21.8 µM (inactive); in test [11], 2.11 µM (inactive). For the same compound, the GI50 in [12] was 33.1 µM (inactive); in test [5], 12.9 µM (inactive); in [19], 12.1 µM (inactive); in [15], 29.2 µM (inactive); in [7] it was 17.1 µM (inactive); in test [8], 4.58 µM (inactive). Further, the GI50 in test [20] was 20.8 µM (inactive); in test [16], 21.8 µM (inactive); in test [17] it was 44.5 µM (inactive); in test [9] it was 43.6 µM (inactive).

Consider `COc1cc(OC)cc(N2CCC(c3c(N)nc(N)nc3Cl)CC2)c1`, for which the GI50 was > 100 µM (inactive) in [2]; 75.7 µM (inactive) in [3]; > 100 µM (inactive) in [18]; 67.5 µM (inactive) in test [4]; 48.4 µM (inactive) in test [12]; > 100 µM (inactive) in test [19]. Besides, the GI50 in test [6] is 37.8 µM (inactive); in [7] it was 53.7 µM (inactive); in test [8] it was 16.9 µM (inactive); in [20], > 100 µM (inactive); in test [17], 92.3 µM (inactive); in [9] it was > 100 µM (inactive).

In the case of `Cc1cc2c(cc1Cl)Sc1n[nH]c(=O)n1S2(=O)=O`, the GI50 in test [1] was 19.4 µM (inactive); in [10], > 100 µM (inactive); in test [2], > 100 µM (inactive); in test [4] it was > 100 µM (inactive); in test [11] it was > 100 µM (inactive); in test [12] it was 54.3 µM (inactive). Besides, the GI50 in [5], in test [19], in test [13], in [14], in test [15] and in [7] was > 100 µM (inactive) each time. Moreover, in [16], the GI50 is > 100 µM (inactive).

Consider `CC1(C)C(=O)OC(n2cc(F)c(=O)[nH]c2=O)C1=O` (stereo not given), for which the GI50 is > 100 µM (inactive) in test [1]; > 100 µM (inactive) in test [3]; 46.6 µM (inactive) in test [4]; 89.5 µM (inactive) in test [11]; 26.5 µM (inactive) in test [12]; > 100 µM (inactive) in [5]. The GI50 in test [19] is > 100 µM (inactive); in [6], > 100 µM (inactive); in test [15], > 100 µM (inactive); in test [7] it was 55.1 µM (inactive); in test [8] it was > 100 µM (inactive); in [16], 43.9 µM (inactive). Further, the GI50 in test [17] and in [9] was > 100 µM (inactive) each time.

As for `NC(=O)c1ncn2c1CNC(=O)C2`, the GI50 in [1], in [10], in test [2], in [4], in test [12] and in test [5] was > 100 µM (inactive) throughout. Besides, the GI50 in test [13], in test [15], in [7], in [16] and in [17] was > 100 µM (inactive) each time.

Regarding `Cc1cc2c(=O)c3ccccc3[nH]c2c(C(N)=O)c1C`, the GI50 in test [2], in test [3], in test [11], in test [5], in [19] and in test [6] was > 100 µM (inactive) throughout. For the same compound, the GI50 in test [15], in test [7], in [8], in test [20], in [16] and in test [17] was > 100 µM (inactive) each time. In addition, in [9], the GI50 was > 100 µM (inactive).

Consider `COc1cc2c(cc1O)CCN(C)[C@H]2Cc1ccc(Oc2c(O)c(OC)cc3c2C[C@H]2c4c(c(OC)c(OC)c(OC)c4-3)CCN2C)cc1` [THALIFABERIDINE], for which the GI50 was 7.41 µM (inactive) in test [1]; 5.75 µM (inactive) in test [10]; 5.06 µM (inactive) in test [2]; 3.08 µM (inactive) in test [4]; 2.99 µM (inactive) in test [11]; 1.69 µM (inactive) in test [12]. For the same compound, the GI50 in test [5] is 2.85 µM (inactive); in test [19] it was 1.72 µM (inactive); in [13] it was 5.13 µM (inactive); in test [14], 4.94 µM (inactive); in [15], 7.46 µM (inactive); in [7] it was 2.09 µM (inactive). Besides, the GI50 in test [8] was 1.51 µM (inactive); in [16], 5.9 µM (inactive); in test [17] it was 6.82 µM (inactive).
